Consider 20 compounds from patent publication US12435091B2, “RNA-binding protein multimerization inhibitors and methods of use thereof” (THE UAB RESEARCH FOUNDATION, priority 2020, dated 2025).

In the test the target is T1, HuR (Homo sapiens, UniProt Q15717).
T1 construct: expressed in transfected cells; host or cells: U251 glioma cells, doxycycline-inducible constructs
The test can be described thus: cell-based split firefly luciferase-HuR dimerization assay. The note with it: split luciferase HuR dimerization assay, compounds administered for 6 hours; for IC50: read-out: HuR IC50. The protocol: The oncogenic activity of HuR is driven by subcellular localization into the cytoplasm and formation of multimers of HuR. To develop cell based assays to characterize the ability of small molecules to disrupt this process, a split luciferase assay detecting the formation of HuR dimers was developed. The assays were performed in 96 well plates with clear bottom (Corning Inc., Corning, NY). Cells with designed constructs (30,000-50,000 in number) were plated per well; the constructs were induced by doxycycline (0.75 ug/ml) for 48 hours. The evaluated compounds at different concentrations and the corresponding vehicle as the control were administered for 6 hours. The luminescence signals were detected by using InfinitiM200 plate reader (TECAN, Morrisville, NC) in the presence of the luciferase substrate luciferin (D-Luciferin, potassium salt), which was purchased from GoldBio (St Louis, MO). A multichannel pipette (XL 3000I™, Denville Scientific, South Plainfield, NJ) was used in all procedures to ensure the experiment quality.
The assay used the coding sequence of HuR in frame with the N-terminus of firefly luciferase or the C-terminus as depicted in FIG. 2A. When HuR forms dimers in this case, luciferase is generated and with luciferin present, luminescence is generated.
Squares represent luminescence signal from reporter representing HuR dimers (U251 cells co-expressing HuR-Nluc and HuR-Cluc constructs); circles represent luminescence signal from control reporter (U251 cells expressing Fluc construct). Results are shown as mean+SD.

Molecules are shown by their SMILES. Some results are limits rather than exact numbers.

T1 sequence (Q15717 whole entry): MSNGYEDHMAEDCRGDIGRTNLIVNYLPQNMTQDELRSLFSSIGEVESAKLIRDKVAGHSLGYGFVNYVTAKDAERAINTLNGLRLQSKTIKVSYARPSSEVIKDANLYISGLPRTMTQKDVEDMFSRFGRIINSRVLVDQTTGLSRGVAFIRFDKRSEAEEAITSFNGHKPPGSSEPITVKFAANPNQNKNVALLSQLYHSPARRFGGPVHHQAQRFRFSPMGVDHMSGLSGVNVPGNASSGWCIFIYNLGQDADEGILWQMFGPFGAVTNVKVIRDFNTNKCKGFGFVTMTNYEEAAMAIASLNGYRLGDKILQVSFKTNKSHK

Regarding `OCc1ccccc1-c1cnc2ccc(NC3CCOCC3)nn12` [Compound 7], the concentration for half-maximal inhibition (IC50) (commonly the concentration that inhibits the measured activity by half) was greater than 100 µM.
Consider `Cc1nn(C)c2ccc(-c3cnc4ccc(NC5CCOCC5)nn34)cc12` [Compound 43, 3-(1,3-Dimethyl-1H-indazol-5-yl)-N-(tetrahydro-2H-pyran-4-yl)imidazo[1,2-b]pyridazin-6-amine], for which the “HuR IC50” value is on record as “Insoluble”.
`c1cncc(-c2cnc3ccc(NC4CCOCC4)nn23)c1` [Compound 8]: the IC50 was greater than 30 µM.
On the same count and under the same terms, in the case of `c1cc2cc(-c3cnc4ccc(NC5CCOCC5)nn34)ccc2o1` [Compound 10] it was greater than 30 µM; in that of `Cc1nn(C)c2cc(-c3cnc4ccc(NC5CCOCC5)nn34)ccc12` [Compound 34, 3-(1,3-Dimethyl-1H-indazol-6-yl)-N-(tetrahydro-2H-pyran-4-yl)imidazo[1,2-b]pyridazin-6-amine], 40 µM; in that of `CCCN(C)c1ccc2ncc(-c3cccc(N(C)C)c3)n2n1` [Compound 16, 3-(3-(Dimethylamino)phenyl)-N-methyl-N-propylimidazo[1,2-b]pyridazin-6-amine], greater than 50 µM.
For the compound `Cc1nn(C)c2ccc(-c3cnc4ccc(N(C)C5CCOCC5)nn34)cc12` [Compound 44, 3-(1,3-Dimethyl-1H-indazol-5-yl)-N-methyl-N-(tetrahydro-2H-pyran-4-yl)imidazo[1,2-b]pyridazin-6-amine], the “HuR IC50” value is “Insoluble”.
With `c1cnc2cc(-c3cnc4ccc(NC5CCOCC5)nn34)ccc2n1` [Compound 12], the IC50 was found to be 12 µM.
As to `CCCN(C)c1ccc2ncc(-c3cccc4cnccc34)n2n1` [Compound 17, 3-(Isoquinolin-5-yl)-N-methyl-N-propylimidazo[1,2-b]pyridazin-6-amine], the IC50 was greater than 50 µM.
The same measure, in the same setting: in the case of `Cc1nn(C)c2cc(-c3cnc4ccc(N(C)C5CCOCC5)nn34)ccc12` [Compound 35, 3-(1,3-Dimethyl-1H-indazol-6-yl)-N-methyl-N-(tetrahydro-2H-pyran-4-yl)imidazo[1,2-b]pyridazin-6-amine] it was greater than 50 µM.
For `CCCN(C)c1ccc2ncc(-c3ccc4c(C)nn(C)c4c3)n2n1` [Compound 36, 3-(1,3-Dimethyl-1H-indazol-6-yl)-N-methyl-N-propylimidazo[1,2-b]pyridazin-6-amine], the IC50 is greater than 50 µM.
On the same count and under the same terms, in the case of `COc1ccc(-c2cnc3ccc(NC4CCCCC4)nn23)cc1` [Compound 15] it was greater than 30 µM; in that of `CN1CCC(N(C)c2ccc3ncc(-c4ccc5cn[nH]c5c4)n3n2)CC1` [Compound 25, 3-(1H-Indazol-6-yl)-N-methyl-N-(1-methylpiperidin-4-yl)imidazo[1,2-b]pyridazin-6-amine], greater than 50 µM; in that of `CS(=O)(=O)c1ccc(-c2cnc3ccc(NC4CCOCC4)nn23)cc1` [Compound 6], greater than 30 µM.
Same read-out and setting: in the case of `c1ccc(-c2cnc3ccc(NC4CCOCC4)nn23)cc1` [Compound 11] it was 18 µM.
On to `CN(c1ccc2ncc(-c3ccccc3)n2n1)C1CCOCC1` [Compound 14, N-Methyl-3-phenyl-N-(tetrahydro-2H-pyran-4-yl)imidazo[1,2-b]pyridazin-6-amine], for which the IC50 was 23 µM.
On the same count and under the same terms, in the case of `c1cc2cn[nH]c2cc1-c1cnc2ccc(N(CC3CC3)C3CCOCC3)nn12` [Compound 28, N-(Cyclopropylmethyl)-3-(1H-indazol-6-yl)-N-(tetrahydro-2H-pyran-4-yl)imidazo[1,2-b]pyridazin-6-amine] it was greater than 50 µM.
Same read-out and setting: the result for `CC(=O)c1n[nH]c2ccc(-c3cnc4ccc(N(C)C5CCOCC5)nn34)cc12` [Compound 54, 1-(5-(6-(Methyl(tetrahydro-2H-pyran-4-yl)amino)imidazo[1,2-b]pyridazin-3-yl)-1H-indazol-3-yl)ethan-1-one] reads greater than 50 µM; that for `CCCN(C)c1ccc2ncc(-c3ccc4c(C)n[nH]c4c3)n2n1` [Compound 33, N-Methyl-3-(3-methyl-1H-indazol-6-yl)-N-propylimidazo[1,2-b]pyridazin-6-amine], 25 µM; that for `CC(=O)Nc1cccc(-c2cnc3ccc(NC4CCOCC4)nn23)c1` [Compound 9], greater than 30 µM.
